Key:
CD16 = assay: Binding to soluble FcγR-MIg fusion on WIL2-S cells, flow cytometry (allele not stated)
Description: The immunoglycoproteins produced according to Example 2 were assayed in vitro for binding to soluble Ig-fusion versions of Fcγ receptors, in which the extracellular domain of a receptor is fused to murine IgG2a Fc.
The soluble Fey receptor materials were generated by fusing the extracellular domain of Fcγ Receptors I (Genbank Acc. No. BC032634), IIa (Genbank Acc. No. NM_021642), IIb (Genbank Acc. No. BC031992), and III-V158 (high affinity allele) (Genbank Acc. No. X07934) and III-F158 (low affinity allele), respectively, to a murine IgG2a Fc with a Pro to Ser mutation at residue 238 (MIgG2aP238S). For both forms of Fcγ RIII (CD16), an HE4 leader was cloned onto CD16 amino acids 1-178 and then fused to MIgG2aP238S.
The assays were carried out as follows. […] The cells were then incubated with the desired FcγR-MIg fusion in the same diluent at a concentration of 1 μg/ml on ice for 45 minutes.
The complexes (WIL2-S cells/SMIP/FcγR-MIg) were then incubated with PE conjugated AffiniPure F(Ab')2 Goat Anti-Mouse IgG [Jackson Immunoresearch] (a mouse Fc-specific antibody with minimal cross reactivity with human Fc) at a 1:100 dilution. The cells were analyzed by one-color flow cytometry on a FACsCalibur using CellQuest software (Becton Dickinson).
If TRU-016 supernatants from Example 2 were used in this assay instead of purified TRU-016 protein, the SMIP concentration in the supernatant was quantified by direct staining of WIL2-S cells with diluted supernatant along with a TRU-016 standard. TRU-016 was detected by staining with FITC conjugated F(Ab')2 Goat Anti-Human (gamma) [Caltag H10101] at a 1:50 dilution.

CD37 and FcγRIIIa (CD16) = assay: Simultaneous binding of TRU-016 to CD37 and FcγRIIIa (CD16) on Daudi cells; set-up: species or system human; details: CS 0-800 μM in culture; response up to 400 μM, at which point the binding appears to level off
Description: TRU-016 produced as described in Example 8 was tested in the following assay, which simultaneously evaluates the ability of the TRU-016 binding domain to bind to a CD37 expressing target cell and the ability of the Fc portion of the TRU-016 SMIP to bind a fusion protein of human CD16 and murine IgG Fc.
The target cell utilized is the Daudi (ATCC CRL-213) cell line. Daudi cells are a human B-lymphoblastoid cell line derived from a Burkitt's lymphoma and express high levels of CD37. The custom soluble CD16:MuIgGFc fusion protein is human CD16 (low affinity polymorphism) linked to a murine IgG Fc.
The appropriate number of Daudi cells (350,000/well times the number of wells) is aliquoted and centrifuged at 250×g for 5 minutes at 15° C. The supernatant is removed. One percent cold paraformaldehyde is prepared by diluting the 4% stock from USB (USB US19943) 1:4 with FACS Buffer. FACS Buffer is prepared by adding 2% FBS (Gibco) to Dulbecco's PBS (Invitrogen) (v/v) and sterile filtering with a 0.22 μm filter. FACS Buffer is stored and used at 4° C. […]
Each sample's bound fluorescence is measured on a BD FACSCalibur flow cytometry system and analyzed with Cell Quest Pro software (Becton Dickinson, ver 5.2). The GeoMean fluorescence intensity for each sample is plotted relative to the TRU-016 concentration. […]

With “TRU-016: recombinant single chain protein (SMIP) that binds CD37; G28-1 binding domain, modified hinge, human IgG1 CH2 and CH3; SEQ ID NO: 2” the “CD16 binding activity of sera containing TRU-016” value (CD16; mouse sera at 48, 72, 96 and 192 hours after administration of carbohydrate-modified TRU-016) was “retained its increased CD16 binding activity”.
With `O[C@H]1[C@H](O)[C@@H](O)CN2CC[C@H](O)[C@H]12` [castanospermine] the “CD16 binding (mean fluorescence intensity) of Protein A-purified TRU-016” value (CD16; 0, 10, 25, 50, 100 or 200 μM castanospermine in culture media) was “dose-dependent increase” and the “simultaneous binding of TRU-016 to CD37 and CD16 (GeoMean fluorescence, D-parameter)” value (CD37 and FcγRIIIa (CD16)) was “dose-dependent binding response”.

— US20100150948A1, “MATERIALS AND METHODS FOR IMPROVED IMMUNOGLYCOPROTEINS” (TRUBION PHARMACEUTICALS, INC., priority 2006, published 2010)
